Test results as given in patent US4619917A, “Substituted 2-furanyl- or 5-oxo-2-furanyl methoxy phosphoryl alkyl cyclimmonium salts” (Sandoz Pharm. Corp., priority 1985, dated 1986).
Where a name gives a salt, the structure may show the parent alone.

Key:
[1] = test system: human platelet aggregation (PAF-induced); test: Platelet Aggregation Inhibition Assay test (PAIA test): inhibition of PAF-induced human platelet aggregation in vitro; format: cell-based; details: PAF-induced human platelet aggregation in PRP, 37° C., C-16 PAF 0.1 μM or 0.01 μM
Method: All of the compounds of formula I are useful as platelet activating factor inhibitors as indicated by their ability to inhibit platelet activating factor (PAF)-induced human platelet aggregation in vitro according to the Platelet Aggregation Inhibition Assay test (PAIA test) as follows:
Human subjects are kept aspirin free for one week and fasted overnight. Platelet rich plasma (PRP) is prepared by centrifugation (200×g.) of freshly drawn blood, anti-coagulated with 0.38% sodium citrate (final concentration). Platelet count is adjusted to 250,000 per μl using platelet poor plasma (PPP) obtained by a second centrifugation (700×g.) of the blood sample. An aliquot (0.38 ml.) of the PRP is dispensed into cuvettes and maintained at room temperature (22° C.) until used (but for not more than two hours). The PRP-containing cuvettes are incubated at 37° C. and stirred at 900 rpm within a Payton Aggregometer which is activated to follow the light deflection pattern prior to the addition of the test compound. […] Between one and two minutes after the addition of the test compound, the aggregation inducing agent (C-16 PAF-Sandoz-Hanover), dissolved in a buffer consisting of 0.01M Tris-Tyrodes buffer with 0.25% bovine serum albumin (pH 7.4), is added to the PRP-containing cuvettes in an amount predetermined to give a consistent aggregation response (either 0.1 μM or 0.01 μM). All aggregations are allowed to proceed for 6 minutes from the addition of the inducing agent. The aggregation response is quantitated by determining the area under the curve (AUC). The AUC calculated for the inducing agent alone is considered to be one hundred percent. The potential percent inhibition of the aggregation response is determined by dividing the AUC generated in the presence of the compound by the AUC of the inducing agent alone, multiplying by 100 and then subtracting from 100.

[2] = biological target: T1, Human Platelet PAF Receptor (Homo sapiens, UniProt P25105); test: Human Platelet PAF Receptor Assay test (Test A): inhibition of specific binding of [3H]-PAF to platelets; details: [3H]-PAF specific binding to human platelets, room temperature, one hour
T1 construct: from tissue; host or cells: washed human platelets from blood of healthy donors
Method: Human blood is obtained by venipuncture of healthy, human donors into an anti-coagulant mixture containing 3.15% of trisodium citrate and 20 μg/ml of Prostaglandin I2 (PGI2) in a ratio of blood to anti-coagulant of 9:1. Platelet rich plasma (PRP) is prepared by centrifugation (250×g) of the blood for 20 minutes at room temperature. The PRP is then centrifuged (900×g) for 10 minutes at room temperature and the platelet pellet is washed two times with Tris-Tyrode's (TT) solution having a pH of 7.4 and containing 0.25% bovine serum albumin (BSA), and to which has been added PGI2 at a final concentration of […]. The platelets are resuspended at […] in TT/BSA containing 1.4 mM CaCl2.2H2 O and 0.7 mM MgCl2.6H2 O. All of the tests are conducted in duplicate and each of the test compounds is evaluated at concentrations of 100, 50, 1 and 0.1 μM. For each determination, the following solutions are mixed:
500 μl of the above-described platelets;
10 μl of [^3 H]-PAF (40,000 counts per minute (cpm) to a final concentration of […]); and
10 μl of the test compound at 50× the desired final concentration,
10 μl of vehicle (total bound), or
10 μl of 1.85×10^-5 M cold PAF (non-specifically bound).
Each mixture is allowed to incubate at room temperature for one hour, after which time the reaction is terminated by the addition of 500 μl of ice cold TT/BSA and centrifugation (900×g) at 4° C. for 10 minutes. […] An additional 2 ml. of Scintiverse II is then added to the vials and, after mixing, the vials are counted for 1 minute in a liquid scintillation spectrometer. The amount of specific binding is calculated as the difference in cpm between the total bound [^3 H]-PAF and non-specifically bound [^3 H]-PAF. The percent inhibition of specific binding is determined by dividing the cpm specifically bound in the presence of the test compound by the cpm specifically bound in total, multiplying by 100 and then subtracting from 100. […]

[3] = test system: PAF-mediated extravasation in guinea pigs; test: PAF-induced Extravasation test (Test C), hemoconcentration (hematocrit); format: in vivo, guinea pig; details: Cavia porcellus, ia, PAF 100 ng/kg iv, inhibition of percent increase in hematocrit
Method: Still further, the compounds of formula I are useful as inhibitors of PAF-mediated extravasation (the extrusion of plasma from the lumen of the blood vessels into the vessel wall and surrounding tissues) measured as a function of hemoconcentration according to the PAF-induced Extravasation test (Test C) as follows.
Male guinea pigs, weighing between 300 and 400 gm, are anesthetized, after which time a femoral catheter is inserted. The test compound is administered intraarterially at one to five minutes prior to the introduction of PAF. The PAF (C18 -Sandoz, Hanover) is dissolved in Tris-Tyrode's bovine serum albumin buffer and administered intravenously (jugular) at 100 ng/kg.
To determine the hematocrit value, which is employed to index hemoconcentration and is defined as the percent of packed red blood cells in a sample of blood which is centrifuged to separate plasma from the cellular components, blood samples are collected in 50 μl heparinized hematocrit tubes. […] The tubes are then centrifuged and the percent of packed red blood cells (hematocrit) is measured (PAF induces a maximal increase in hematocrit at 5 to 7 minutes subsequent to the injection of PAF). The percent increase in hematocrit over the value prior to the injection of PAF is calculated. […]

[4] = test system: PAF-induced hypotension in Wistar rats; test: Inhibition of PAF-induced hypotension (Test D); format: in vivo, rat (male Wistar); details: male Wistar rats
Method: Yet still further, the compounds of formula I are useful as inhibitors of PAF-induced hypotension as measured by their ability to inhibit the lowering of blood pressure levels induced by PAF according to the following test (Test D):
Male Wistar rats, weighing approximately 300 gm, are anesthetized and their carotid arteries cannulated to enable their diastolic and systolic arterial blood pressure measurements to be recorded. PAF is then administered intravenously at either 100 or 500 ng/kg, and the blood pressure drop (within 10 sec.) and recovery time required to reach the pre-injection blood pressure level are measured. At 100 ng/kg, a 30% decrease in blood pressure and a 3 to 4 minute recovery time are observed, whereas at 500 ng/kg, a 52% decrease in blood pressure and a 10 minute recovery time are observed. In order to measure the effectiveness of a compound for both the inhibition of blood pressure decreases and shortening of the recovery time, the test compound is administered intravenously over a range of between 5 and 7 dosage levels (1 or 2 test animals per dose) and between 1 and 5 minutes prior to the introduction of PAF to generate an ED50.

[5] = test system: PAF-mediated bronchoconstriction in guinea pigs; test: PAF-induced Pulmonary Inflation Pressure (PIP) Increase test (Test B); format: in vivo, guinea pig; details: PAF 100 ng/kg iv, slowly decreases to baseline
Method: Furthermore, in view of their usefulness as PAF receptor antagonists, the compounds of formula I have been found useful as inhibitors of PAF-mediated bronchoconstriction, which property was evaluated by the PAF-induced Pulmonary Inflation Pressure (PIP) Increase test (Test B) as follows:
Male guinea pigs, weighing between 300 and 400 gm, are anesthetized, after which time trachea tube, carotid and jugular catheters are inserted. The test animal is then force ventilated employing a small animal Harvard respirator and the resistance to lung inflation (PIP) is measured utilizing a pressure transducer and recorder. The test compound is administered either orally at 30 minutes prior to or intravenously (jugular) at 5 minutes prior to the introduction of PAF. The PAF (C18 -Sandoz, Hanover) is dissolved in Tris-Tyrode's bovine serum albumin buffer and administered intravenously (jugular) at 100 ng/kg. Any blood pressure measurements taken are recorded from a transducer attached to the carotid catheter. […] A reading at 15 minutes after the administration of PAF is termed the endpoint PIP. The effect of the test compound on the PIP response is determined by the difference between the percent increase in maximal PIP over baseline for the test animal to which has been administered PAF and the test compound compared to the test animal to which only PAF has been administered.

T1 sequence (P25105 whole entry): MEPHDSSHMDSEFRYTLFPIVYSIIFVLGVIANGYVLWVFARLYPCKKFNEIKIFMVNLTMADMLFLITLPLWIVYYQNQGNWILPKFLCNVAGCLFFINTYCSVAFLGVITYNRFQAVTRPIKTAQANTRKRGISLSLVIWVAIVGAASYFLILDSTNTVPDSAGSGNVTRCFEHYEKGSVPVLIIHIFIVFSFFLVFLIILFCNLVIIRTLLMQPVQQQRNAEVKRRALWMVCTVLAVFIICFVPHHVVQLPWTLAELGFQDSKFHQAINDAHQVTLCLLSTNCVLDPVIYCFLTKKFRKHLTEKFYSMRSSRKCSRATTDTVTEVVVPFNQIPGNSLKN

Compound | IC50 [1] | IC50 [2] | ED50 [3] | ED50 ([4]; Rattus norvegicus, iv, PAF-induced hypotension) | duration of long term PIP response [5] | decrease in blood pressure ([4]; PAF 100 ng/kg iv) | decrease in blood pressure ([4]; PAF 500 ng/kg iv) | recovery time to pre-injection blood pressure level ([4]; PAF 500 ng/kg iv)
CCCCCCCCCCCCCCCCCCOCCC1(COP(=O)([O-])OCC[n+]2ccsc2)CCC(=O)O1 (stereo not shown) [Example 1, 3-[2-[(2-Octadecyloxy)ethyl-5-oxo-tetrahydrofuran-2-yl]methoxyhydroxyphosphinyloxy-ethane]thiazolium hydroxide-inner salt-4-oxide] | 10.5 µM | 1.8 µM | 0.25 mg/kg |  |  |  |  | 
CCCCCCCCCCCCCCCCCCNC(=O)OCC1(COP(=O)([O-])OCC[n+]2ccsc2)CCCO1 (stereo not shown) [Example 3, 3-[2-[(2-Octadecylaminocarbonyloxymethyltetrahydrofuran-2-yl-methoxy)-hydroxyphosphinyloxy]-ethane]-thiazolium hydroxide inner salt-4-oxide] | 3.5 µM | 0.47 µM | 0.3 mg/kg | 1.5 mg/kg |  |  |  | 
CCCCCCCCCCCCCCCCCCOCC1(COP(=O)([O-])OCC[n+]2ccsc2)CCCO1 (stereo not shown) [Example 2, 3-[2-[(2-Octadecyloxymethyltetrahydrofuran-2-yl-methoxy)-hydroxyphosphinyloxy]-ethane]-thiazolium hydroxide inner salt-4-oxide] | 81.5 µM | 3.3 µM |  |  |  |  |  | 
1-O-alkyl-2-acetyl-sn-glyceryl-3-phosphorylcholine [PAF] |  |  |  |  | at least 30 minutes | 30% | 52% | 10 min
